# Reference: EP1745781A1, “Combination of pyrazoline type cannabinoid receptor antagonist and statin” (LABORATORIOS DEL DR. ESTEVE, S.A., priority 2005, dated 2007)
# Tests used:
# Male NMRI mice [1] = test: Mouse tetrad model: catalepsy; type: in vivo; details: for Agonistic effect C: Catalepsy: 5 mg/kg i.v.; for Antagonistic Effect C: Catalepsy: 5 mg/kg i.v. prior to Win 55212-2 in a dose of 1.25mg/kg i.v.
# Source text: (§1) II. In-vivo bioassay system for determination of cannabinoid activity
# (§2) Substances with affinity for cannabinoid receptors are known to produce a wide range of pharmacological effects. It is also known that intravenous administration of a substance with affinity for cannabinoid receptors in mice produces analgesia , hypothermia, sedation and catalepsy. Individually, none of these effects can be considered as proof that a tested substance has affinity for cannabinoid-receptors, since all of these effects are common for various classes of centrally active agents. However, substances, which show all of these effects, i.e. substances that are active in this so-called tetrad model are considered to have affinity for the cannabinoid receptors. It has further been shown that cannabinoid receptor antagonists are higly effective in blocking the effects of a cannabinoid agonist in the mouse tetrad model.
# (§3) The tetrad model is described, for example, in the publication of A. C. Howlett et al, international Union of Pharmacology XXVII. Classification of Cannabinoid Receptors, Pharmacol Rev 54, 161-202 , 2002 and David R. Compton et al., "In-vivo Characterization of a Specific Cannabinoid Receptor Antagonist (SR141716A) :Inhibition of Tetrahydrocannbinol- induced Responses and Apparent Agonist Activity", J. Pharmacol. Exp. Ther. 277 , 2, 586-594, 1996. […]
# (§4) Before testing in the behavioral procedures given below, mice are acclimatized to the experimental setting. Pre-Treatment control values are determined for analgesia hot plate latency (in seconds), rectal temperature, sedation and catalepsy.
# (§5) In order to determine the agonistic activty of the substance to be tested, the mice are injected intravenously with the substance to be tested or the vehicle alone. 15 minutes after injection, latency in hot plate analgesia is measured. Rectal temperature, sedation and catalepsy are measured 20 minutes after injection.
# (§6) In order to determine the antagonistic activity the identical procedure is used as for the determination of the agonistic effects, but with the difference that the substance to be evaluated for its antagonistic activity is injectected 5 minutes before the intravenous injection of 1.25 mg/kg Win-55,212 a known cannabinoid-receptor agonist.
# Catalepsy is determined according to the method described in Alpermann H. G. et al. "Pharmacological effets of Hoe 249: A new potential antidepressant", Drugs Dev. […]
# The cataleptic effect of the substance to be tested is evaluated according to the duration of catalepsy, whereby the animals are placed head downwards with their kinlegs upon the top of the wooden block. […]
# The percentage of catalepsy is determined according ot the following formula: %Catalepsy = arithmetic mean/6 × 100 [formula]
# CB2-Receptor = biological target: T1, CB2-Receptor (Homo sapiens, UniProt P34972); test: In-vitro determination of affinity to CB2 receptor (radioligand [^3H]-CP55940); type: binding
# T1 construct: purchased Receptor Biology, Inc
# Description: (§7) I. In-vitro determination of affinity to CB1/CB2-Receptors
# (§8) The in-vitro determination of the affinity of the substituted pyrazoline compounds to CB1/CB2-Rezeptors is carried out as described in the publication of Ruth A. Ross, Heather C. Brockie et al., "Agonist-inverse agonist characterization at CB1 and CB2 cannabinoid receptors of L-759633. L759656 and AM630", British Journal of Pharmacology, 126, 665-672, (1999), whereby the transfected human CB1 and CB2 receptors of Receptor Biology, Inc. are used. The radioligand used for both receptors is [^3H]-CP55940. The respective parts of the description is hereby incorporated by reference and forms part of the present disclosure.
# CB1-Receptor = biological target: T2, CB1-Receptor (Homo sapiens, UniProt P21554); test: In-vitro determination of affinity to CB1 receptor (radioligand [^3H]-CP55940); type: binding
# T2 construct: purchased Receptor Biology, Inc
# Description: as §7, §8
# Male NMRI mice [2] = test: Mouse tetrad model: sedation and ataxia; type: in vivo; details: for Agonistic effect D: Sedation: 5 mg/kg i.v.; for Antagonistic Effect D: Sedation: 5 mg/kg i.v. prior to Win 55212-2 in a dose of 1.25mg/kg i.v.
# Source text: as §1, §2
# The tetrad model is described, for example, in the publication of A. C. Howlett et al, international Union of Pharmacology XXVII. Classification of Cannabinoid Receptors, Pharmacol Rev 54, 161-202 , 2002 and David R. Compton et al., "In-vivo Characterization of a Specific Cannabinoid Receptor Antagonist (SR141716A) :Inhibition of Tetrahydrocannbinol- induced Responses and Apparent Agonist Activity", J. Pharmacol. Exp. Ther. 277 , 2, 586-594, 1996. The corresponding parts of the description are hereby incorporated by reference.
# Male NMRI mice with a weight of 20-30 g (Harlan, Barcelona, Spain) are used in all of the following experiments.
# as §4, §5, §6
# Determination of sedation and ataxia
# Sedation and ataxia is determined according to the method described in Desmet L. K. C. et al. "Anticonvulsive properties of Cinarizine and Flunarizine in Rats and Mice", Arzneim. -Forsch. (Frug Res) 25, 9, 1975. […]
# The percentage of sedation is determined according to the formula: %of sedation = arithmetic mean/3 × 100 [formula]
# Male NMRI mice [3] = test: Mouse tetrad model: hot plate analgesia; type: in vivo; details: for Agonistic effect A: Hot-Plate test: 5 mg/kg i.v.; for Antagonistic Effect A: Hot-Plate test: 5 mg/kg i.v. prior to Win 55212-2 in a dose of 1.25mg/kg i.v.
# Source text: as §1, §2
# The tetrad model is described, for example, in the publication of A. C. Howlett et al, international Union of Pharmacology XXVII. Classification of Cannabinoid Receptors, Pharmacol Rev 54, 161-202 , 2002 and David R. Compton et al., "In-vivo Characterization of a Specific Cannabinoid Receptor Antagonist (SR141716A) :Inhibition of Tetrahydrocannbinol- induced Responses and Apparent Agonist Activity", J. Pharmacol. Exp. Ther. 277 , 2, 586-594, 1996. The corresponding parts of the description are hereby incorporated by reference. […]
# as §4, §5, §6
# The hot plate analgesia is determined according to the method described in Woolfe D. et al. "The evaluation of analgesic action of pethidine hydrochloride (Demerol)", J. Pharmacol. Exp. Ther. 80, 300-307,1944. […]
# The mice are placed on a hot plate (Harvard Analgesimeter) at 55 ± 0.5 °C until they show a painful sensation by licking their paws or jumping and the time for these sensations to occur is recorded. This reading is considered the basal value (B). […]
# Male NMRI mice [4] = test: Mouse tetrad model: hypothermia; type: in vivo; details: for Agonistic effect B: Hypothermia: 5 mg/kg i.v.; for Antagonistic Effect B: Hypothermia: 5 mg/kg i.v. prior to Win 55212-2 in a dose of 1.25mg/kg i.v.
# Source text: as §1, §2, §3, §4, §5, §6
# Hypothermia is determined according to the method described in David R. Compton et al. "In-vivo Characterization of a Specific Cannabinoid Receptor Antagonist (SR141716A) Inhibition of Tetrahydrocannbinol- induced Responses and Apparent Agonist Activity", J. Pharmacol Exp Ther. 277 , 2, 586-594, 1996. […]
# The base-line rectal temperatures are determined with a thermometer (Yello Springs Instruments Co., Panlabs) and a thermistor probe inserted to 25mm before the administration of the substance to be tested. […]
# T1 sequence (P34972 whole entry): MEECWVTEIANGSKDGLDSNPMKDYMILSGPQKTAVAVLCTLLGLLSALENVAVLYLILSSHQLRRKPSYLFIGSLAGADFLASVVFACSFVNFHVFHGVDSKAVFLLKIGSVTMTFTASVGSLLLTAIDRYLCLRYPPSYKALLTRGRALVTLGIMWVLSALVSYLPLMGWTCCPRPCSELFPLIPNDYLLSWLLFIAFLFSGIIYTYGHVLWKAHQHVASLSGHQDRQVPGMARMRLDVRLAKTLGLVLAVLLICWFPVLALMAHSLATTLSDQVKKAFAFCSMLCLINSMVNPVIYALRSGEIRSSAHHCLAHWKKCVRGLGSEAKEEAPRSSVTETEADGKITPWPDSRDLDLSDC
# T2 sequence (P21554 whole entry): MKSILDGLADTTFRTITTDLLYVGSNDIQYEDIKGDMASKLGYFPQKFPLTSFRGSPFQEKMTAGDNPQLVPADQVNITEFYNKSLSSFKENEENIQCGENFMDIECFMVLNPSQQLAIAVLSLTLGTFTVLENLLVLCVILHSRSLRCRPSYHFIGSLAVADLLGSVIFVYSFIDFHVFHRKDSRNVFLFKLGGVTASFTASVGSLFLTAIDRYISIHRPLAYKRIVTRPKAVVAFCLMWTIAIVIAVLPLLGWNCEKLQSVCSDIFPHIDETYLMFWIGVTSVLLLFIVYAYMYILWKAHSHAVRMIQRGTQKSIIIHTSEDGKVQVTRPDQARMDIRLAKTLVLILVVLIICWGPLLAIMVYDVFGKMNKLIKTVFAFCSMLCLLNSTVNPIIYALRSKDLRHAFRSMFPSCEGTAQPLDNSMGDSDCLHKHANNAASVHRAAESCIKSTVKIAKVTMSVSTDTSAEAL
Compound,Agonistic effect C: Catalepsy (Male NMRI mice [1]),Antagonistic Effect C: Catalepsy (Male NMRI mice [1]),Ki (CB2-Receptor) [nM],Ki (CB1-Receptor) [nM],Agonistic effect D: Sedation (Male NMRI mice [2]),Antagonistic Effect D: Sedation (Male NMRI mice [2]),Agonistic effect A: Hot-Plate test (Male NMRI mice [3]),Antagonistic Effect A: Hot-Plate test (Male NMRI mice [3]),Agonistic effect B: Hypothermia (Male NMRI mice [4]),Antagonistic Effect B: Hypothermia (Male NMRI mice [4])
"O=C(NN1CCCCC1)C1=NN(c2ccc(Cl)cc2Cl)C(c2ccc(Cl)cc2)C1 (stereo not shown) [Example 1, N-piperidinyl-5-(4-chlorophenyl)-1-(2,4-dichlorophenyl)-4,5-dihydro-1H-pyrazole-3-carboxamide]",0,100,> 1000,< 25,0,100,0,74,0,100
"O=C(C1=NN(c2ccc(Cl)cc2Cl)C(c2ccc(Cl)cc2)C1)N1CCCCC1 (stereo not shown) [Example 5, [5-(4-Chloro-phenyl)-1-(2,4-dichloro-phenyl)-4,5-dihydro-1H-pyrazol-3-yl]-piperidin-1-yl-methanone]",0,20,~1000,–,0,20,0,50,50,40
